The values that follow come from US11324832B2, “Tripartite modulators of endosomal G protein-coupled receptors” (Endosome Therapeutics, Inc., priority 2015, dated 2022).

Where a SMILES comes first, the peptide text is derived from it. [ ]: non-standard residue; d: D form. The star is where a group is joined. X1 = CC(C)CCC[C@@H](C)[C@H]1CC[C@H]2[C@@H]3CC[C@H]4C[C@@H](O*)CC[C@]4(C)[C@H]3CC[C@]12C; PEG4 = NCCOCCOCCOCCOCCC(=O)O; PEG3 = NCCOCCOCCOCCC(=O)O

In data set [1] the test system is NK1R. Kind of data set: NK1R endocytosis in neurons of mouse dorsal horn. The class given is in vivo. As to conditions: intrathecal.
Data set [2] concerns the target T1, NK1R (Rattus norvegicus, UniProt P14600). Kind of data set: NK1R endocytosis in rat spinal cord slices. The class given is cell-based. Conditions: Dy4 30 μM; SP 1 μM, 5 min.
A further data set has as its target T2, CLR plus RAMP1 (Homo sapiens, UniProt O60894+Q16602).
T2 construct: expressed in transfected cells; host or cells: HEK293 (transient)
Nature of the data set: FRET ERK biosensors in HEK293 cells expressing CLR plus RAMP1. In kind it is cell-based. Conditions: endocytic inhibitor plus CGRP. As for the experimental part:
HEK293 cells were transfected with 55 ng/well rat NK1R with N-terminal HA. 11 epitope tag (HA-NK1R) or CLR plus RAMP1 and 40 ng/well FRET biosensors. FRET was assessed 48 h after transfection, following serum restriction (0.5% FBS overnight). For experiments using clathrin or dynamin siRNA, cells were transfected with 55 ng/well rat HA-NK1R, 40 ng/well FRET biosensor and 25 nM/well scrambled, clathrin or dynamin ON-TARGETplus SMARTpool siRNA (GE Dharmacon). FRET was assessed 72 h after transfection, following serum restriction (0.5% FBS overnight). Cells were equilibrated in HBSS at 37° C. and FRET was analyzed using a GE Healthcare INCell 2000 Analyzer. For GFP/RFP emission ratio analysis, cells were sequentially excited using a FITC filter (490/20) with emission measured using dsRed (605/52) and FITC (525/36) filters, and a polychroic optimized for the FITC/dsRed filter pair (Quad4). For CFP/YFP emission ratio analysis, cells were sequentially excited using a CFP filter (430/24) with emission measured using YFP (535/30) and CFP (470/24) filters, and a polychroic optimized for the CFP/YFP filter pair (Quad3). Cells were imaged every 1 min, allowing image capture of 14 wells per minute. Baseline emission ratio images were captured for 4 min. […] Data were analyzed as described and expressed as emission ratios relative to baseline for each cell (F/F0). […]

A short description of data set [3]: Solubility in low DMSO for electrophysiology. The class given is physicochemical. Conditions: low concentrations of DMSO required for electrophysiology. On the procedure:
Slices of rat spinal cord were transferred to a recording chamber and superfused with normal ACSF (2 ml·min^−1, 36° C.). […] PS2 was not soluble in the low concentrations of DMSO required for electrophysiology. Large, NKiR-positive, presumed nociceptive lamina I neurons were visually identified as described (Imlach, W. L., et al., Molecular Pharmacology, 2015, 88, 460-428). Spontaneous currents were recorded in cell-attached configuration (Multiclamp 700B, Molecular Devices, Sunnyvale, Calif.), sampled at 10 kHz, high pass filtered at 1 Hz, and capacitatively coupled action potential events were analyzed using Axograph X, V 1.4.4 (Axograph). […] Recordings were sampled at 10 kHz and filtered with a high pass filter at 1 Hz and firing rate was measured in two-minute interval bins. […] The firing time was determined as the duration of the response to last action potential. To assess synaptic transmission, whole-cell configuration recordings were made under control conditions or after exposure to Dy4 or Dy4 inact; a bipolar stimulating electrode was placed at the dorsal root entry zone, and electrically-evoked excitatory postsynaptic currents recorded as described (Imlach, W. L., et al., Molecular Pharmacology, 2015, 88, 460-428).

The target of data set [4] is T1, NK1R. Nature of the data set: SP-stimulated Ca2+ signaling in HEK-NK1R cells, antagonist mode. The class given is cell-based. Also noted: Full length and truncated 6312 rat HA-NK1R have been described; expressed in transfected cells; host or cells: HEK293 (transient). Conditions: SP 3 nM (EC80), HEK-NK1R cells, 30 min pre-incubation; read-out: pIC50, antagonism of SP-stimulated Ca^2+ signaling (converted). As for the experimental part:
[Ca^2+]i was measured as described (Jensen, D. D. et al., J Biol Chem, 2014, 289, 20283-20294). HEK293 cells transiently expressing HA-NK1R or HA-CLR/Myc-RAMP1 were loaded with Fura2-AM (2 μM).

T1 sequence (P14600 whole entry): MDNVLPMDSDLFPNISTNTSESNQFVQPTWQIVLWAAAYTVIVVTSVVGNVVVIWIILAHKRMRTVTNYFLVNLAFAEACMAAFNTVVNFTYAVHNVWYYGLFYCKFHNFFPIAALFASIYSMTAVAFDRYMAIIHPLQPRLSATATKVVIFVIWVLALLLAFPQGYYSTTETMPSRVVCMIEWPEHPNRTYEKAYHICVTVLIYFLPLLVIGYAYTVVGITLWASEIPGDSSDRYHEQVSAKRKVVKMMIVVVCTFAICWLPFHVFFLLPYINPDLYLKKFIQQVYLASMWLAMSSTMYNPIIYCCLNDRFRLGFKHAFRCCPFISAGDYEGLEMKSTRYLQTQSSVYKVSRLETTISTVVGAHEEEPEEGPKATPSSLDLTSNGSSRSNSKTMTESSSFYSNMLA
T2 sequence (Q16602 23-461): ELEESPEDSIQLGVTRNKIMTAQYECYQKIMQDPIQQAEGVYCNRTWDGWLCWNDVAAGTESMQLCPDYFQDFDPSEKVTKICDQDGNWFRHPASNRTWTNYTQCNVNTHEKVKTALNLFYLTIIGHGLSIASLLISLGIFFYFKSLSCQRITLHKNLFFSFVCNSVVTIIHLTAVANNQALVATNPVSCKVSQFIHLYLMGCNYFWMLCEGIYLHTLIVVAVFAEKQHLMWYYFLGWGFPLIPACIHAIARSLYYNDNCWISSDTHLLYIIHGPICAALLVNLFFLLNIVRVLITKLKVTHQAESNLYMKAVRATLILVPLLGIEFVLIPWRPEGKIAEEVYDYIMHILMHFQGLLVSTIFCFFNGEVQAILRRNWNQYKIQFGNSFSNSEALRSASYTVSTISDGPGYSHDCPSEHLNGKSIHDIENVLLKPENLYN
T2 sequence (O60894 27-148): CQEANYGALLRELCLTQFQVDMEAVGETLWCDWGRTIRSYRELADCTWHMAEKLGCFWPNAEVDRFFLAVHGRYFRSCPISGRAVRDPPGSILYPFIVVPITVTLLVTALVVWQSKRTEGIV

For `O=C(N/N=C/c1cc(O)c(O)cc1O)c1cc2ccccc2cc1O` [Dy4], the “effect on capsaicin-, formalin- and CFA-evoked NK1R endocytosis in mouse dorsal horn neurons” value in the data set with NK1R [1] is “inhibited”. Besides, the “effect on SP-stimulated NK1R endocytosis in spinal cord slices” value at NK1R [2] is “prevented”. On CLR plus RAMP1, the “effect on CGRP activation of cytosolic ERK” value is “prevented activation of nuclear but not cytosolic ERK” and the “effect on CGRP activation of nuclear ERK” value is “prevented activation of nuclear but not cytosolic ERK”.

In the case of `O=C1NC(=NS(=O)(=O)c2cccc3ccccc23)S/C1=C\c1ccc(Br)cc1` [PS2], in data set [3], the solubility result is listed as “not soluble”.

In the case of `CC(=O)N[C@@H](CC(=O)O[C@H]1CC[C@@]2(C)[C@@H](CC[C@@H]3[C@@H]2CC[C@]2(C)[C@@H]([C@H](C)CCCC(C)C)CC[C@@H]32)C1)C(=O)NCCOCCOCCOCCOCCC(=O)NCCOCCOCCOCCC(=O)NCCOCCOCCOCCOCCC(=O)N[C@H](CCCNC(=N)N)C(=O)N1CCC[C@H]1C(=O)N[C@@H](CCCCN)C(=O)N1CCC[C@H]1C(=O)N[C@@H](CCC(N)=O)C(=O)N[C@@H](CCC(N)=O)C(=O)N[C@H](Cc1c[nH]c2ccccc12)C(=O)N[C@@H](Cc1ccccc1)C(=O)N[C@H](Cc1c[nH]c2ccccc12)C(=O)N[C@@H](CC(C)C)C(=O)N[C@@H](CC(C)C)C(N)=O` [Compound 1] (Ac-D(X1)[PEG4][PEG3][PEG4][dR]PKPQQ[dW]F[dW]LL-NH2), on NK1R [4], the IC50 is 3.63 nM.
